The assay concerns the target BRAF^V600E protein (Homo sapiens, UniProt P15056, V600E). The assay can be described thus: HiBiT cellular BRAF V600E degradation assay. Format: cell-based. The note with it: 24 h incubation; for DC50: A375.10 cells (HiBiT tag knocked in at N-terminal of BRAF V600E), concentration at which 50% of total cellular BRAF V600E is degraded; for Emax: A375.10 cells, Emax = amount of residual protein remaining in the cell after compound treatment, read-out: HiBit 24 h Emax.

Structures are written as SMILES.

BRAF^V600E protein, sequence (P15056 whole entry V600E): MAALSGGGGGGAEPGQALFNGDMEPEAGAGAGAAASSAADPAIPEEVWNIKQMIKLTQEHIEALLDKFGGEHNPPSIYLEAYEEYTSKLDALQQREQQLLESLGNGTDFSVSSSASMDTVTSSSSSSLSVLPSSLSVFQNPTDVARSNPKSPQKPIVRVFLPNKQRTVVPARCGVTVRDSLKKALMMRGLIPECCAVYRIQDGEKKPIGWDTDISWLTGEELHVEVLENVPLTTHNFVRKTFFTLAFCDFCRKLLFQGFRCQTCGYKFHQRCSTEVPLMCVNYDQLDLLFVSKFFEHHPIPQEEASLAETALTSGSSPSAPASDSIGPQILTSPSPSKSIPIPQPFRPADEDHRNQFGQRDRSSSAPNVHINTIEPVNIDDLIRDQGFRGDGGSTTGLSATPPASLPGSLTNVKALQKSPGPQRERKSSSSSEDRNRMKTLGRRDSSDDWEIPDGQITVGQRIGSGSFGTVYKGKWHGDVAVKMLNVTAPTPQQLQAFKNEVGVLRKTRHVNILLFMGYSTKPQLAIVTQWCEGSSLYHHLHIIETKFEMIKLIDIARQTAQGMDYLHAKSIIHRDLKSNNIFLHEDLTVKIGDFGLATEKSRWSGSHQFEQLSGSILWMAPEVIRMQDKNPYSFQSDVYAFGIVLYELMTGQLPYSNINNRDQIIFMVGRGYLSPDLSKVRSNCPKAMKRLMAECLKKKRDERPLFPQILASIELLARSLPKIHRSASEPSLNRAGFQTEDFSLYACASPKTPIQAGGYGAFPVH

For the compound `CCN(C)S(=O)(=O)Nc1ccc(F)c(C(=O)c2c[nH]c3ncc(-c4ccc(N5CCN(C(=O)CC6(O)CCN(c7ccc(N[C@@H]8CCC(=O)NC8=O)cc7F)CC6)CC5)nc4)cc23)c1F` [Example 177, 5-[6-[4-[2-[1-[4-[[(3R)-2,6-dioxo-3-piperidyl]amino]-2-fluoro-phenyl]-4-hydroxy-4-piperidyl]acetyl]piperazin-1-yl]-3-pyridyl]-3-[3-[[ethyl(methyl)sulfamoyl]amino]-2,6-difluoro-benzoyl]-1H-pyrrolo[2,3-b]pyridine], it took 3.65 nM to reach half-maximal degradation (DC50) and the Emax was 9.99%.

`CCN(C)S(=O)(=O)Nc1ccc(F)c(C(=O)c2c[nH]c3ncc(-c4ccc(N5CCN(C(=O)CC6(O)CCN(c7ccc(N[C@@H]8CCC(=O)NC8=O)cc7F)CC6)CC5)cc4)cc23)c1F` [Example 178, 5-[4-[4-[2-[1-[4-[[(3R)-2,6-dioxo-3-piperidyl]amino]-2-fluoro-phenyl]-4-hydroxy-4-piperidyl]acetyl]piperazin-1-yl]phenyl]-3-[3-[[ethyl(methyl)sulfamoyl]amino]-2,6-difluoro-benzoyl]-1H-pyrrolo[2,3-b]pyridine]: the DC50 is 2.71 nM and the maximal response (Emax) amounted to 9.65%.

For the compound `CCN(C)S(=O)(=O)Nc1ccc(F)c(C(=O)c2c[nH]c3ncc(-c4ccc(N5CCN(C(=O)CC6(O)CCN(c7ccc(N[C@H]8CCC(=O)NC8=O)cc7F)CC6)CC5)cc4)cc23)c1F` [Example 179, 5-[4-[4-[2-[1-[4-[[(3S)-2,6-dioxo-3-piperidyl]amino]-2-fluoro-phenyl]-4-hydroxy-4-piperidyl]acetyl]piperazin-1-yl]phenyl]-3-[3-[[ethyl(methyl)sulfamoyl]amino]-2,6-difluoro-benzoyl]-1H-pyrrolo[2,3-b]pyridine], the half-maximal degradation concentration (DC50) was 5.91 nM and the Emax worked out at 8.35%.

`CCN(C)S(=O)(=O)Nc1ccc(F)c(C(=O)c2c[nH]c3ncc(-c4ccc(N5CCN(C(=O)CC6(O)CCN(c7ccc(NC8CCC(=O)NC8=O)cc7F)CC6)CC5)c(Cl)c4)cc23)c1F` (stereo not drawn) [Example 180, 5-[3-chloro-4-[4-[2-[1-[4-[(2,6-dioxo-3-piperidyl)amino]-2-fluoro-phenyl]-4-hydroxy-4-piperidyl]acetyl]piperazin-1-yl]phenyl]-3-[3-[[ethyl(methyl)sulfamoyl]amino]-2,6-difluoro-benzoyl]-1H-pyrrolo[2,3-b]pyridine]: the DC50 is 4.62 nM and the Emax amounted to 8.93%.

As for `CCN(C)S(=O)(=O)Nc1ccc(F)c(C(=O)c2c[nH]c3ncc(-c4ccn(C5CCN(C(=O)CC6(O)CCN(c7ccc(NC8CCC(=O)NC8=O)cc7F)CC6)CC5)c(=O)c4)cc23)c1F` (stereo not drawn) [Example 181, 5-[1-[1-[2-[1-[4-[(2,6-dioxo-3-piperidyl)amino]-2-fluoro-phenyl]-4-hydroxy-4-piperidyl]acetyl]-4-piperidyl]-2-oxo-4-pyridyl]-3-[3-[[ethyl(methyl)sulfamoyl]amino]-2,6-difluoro-benzoyl]-1H-pyrrolo[2,3-b]pyridine], half-maximal degradation (DC50) was put at 11.5 nM and the maximal effect (Emax) is 13.5%.

`CCN(C)S(=O)(=O)Nc1ccc(F)c(C(=O)c2c[nH]c3ncc(-c4cnc(N5CCC(OCC6CCN(c7ccc(NC8CCC(=O)NC8=O)cc7F)CC6)CC5)nc4)cc23)c1F` (stereo not drawn) [Example 182, 5-[2-[4-[[1-[4-[(2,6-dioxo-3-piperidyl)amino]-2-fluoro-phenyl]-4-piperidyl]methoxy]-1-piperidyl]pyrimidin-5-yl]-3-[3-[[ethyl(methyl)sulfamoyl]amino]-2,6-difluoro-benzoyl]-1H-pyrrolo[2,3-b]pyridine]: half-maximal degradation (DC50) was put at 17.9 nM and the Emax turned out to be 7.7%.

For `CCN(C)S(=O)(=O)Nc1ccc(F)c(C(=O)c2c[nH]c3ncc(-c4ccc(N5CCN(C(=O)CC6(O)CCN(c7ccc(NC8CCC(=O)NC8=O)c(F)c7)CC6)CC5)cc4)cc23)c1F` (stereo not drawn) [Example 184, 5-[4-[4-[2-[1-[4-[(2,6-dioxo-3-piperidyl)amino]-3-fluoro-phenyl]-4-hydroxy-4-piperidyl]acetyl]piperazin-1-yl]phenyl]-3-[3-[[ethyl(methyl)sulfamoyl]amino]-2,6-difluoro-benzoyl]-1H-pyrrolo[2,3-b]pyridine], half-maximal degradation (DC50) was put at 3.54 nM and the maximum response (Emax) was 9.04%.

With `CCN(C)S(=O)(=O)Nc1ccc(Cl)c(C(=O)c2c[nH]c3ncc(-c4cnc(N5CCN(C(=O)CC6(O)CCN(c7ccc(NC8CCC(=O)NC8=O)cc7F)CC6)CC5)nc4)cc23)c1F` (stereo not drawn) [Example 185, 3-[6-chloro-3-[[ethyl(methyl)sulfamoyl]amino]-2-fluoro-benzoyl]-5-[2-[4-[2-[1-[4-[(2,6-dioxo-3-piperidyl)amino]-2-fluoro-phenyl]-4-hydroxy-4-piperidyl]acetyl]piperazin-1-yl]pyrimidin-5-yl]-1H-pyrrolo[2,3-b]pyridine], half-maximal degradation (DC50) was put at 6.48 nM and the Emax came out at 7.43%.

Regarding `CCN(C)S(=O)(=O)Nc1ccc(F)c(C(=O)c2c[nH]c3ncc(-c4cnc(N5CCN(C(=O)CC6(O)CCN(c7ccc(NC8CCC(=O)NC8=O)cc7F)CC6)CC5)c(C#N)c4)cc23)c1F` (stereo not drawn) [Example 186, 5-[5-cyano-6-[4-[2-[1-[4-[(2,6-dioxo-3-piperidyl)amino]-2-fluoro-phenyl]-4-hydroxy-4-piperidyl]acetyl]piperazin-1-yl]-3-pyridyl]-3-[3-[[ethyl(methyl)sulfamoyl]amino]-2,6-difluoro-benzoyl]-1H-pyrrolo[2,3-b]pyridine], it took 5.45 nM to reach half-maximal degradation (DC50) and the maximal effect (Emax) was 8.35%.

For the compound `CCN(C)S(=O)(=O)Nc1ccc(F)c(C(=O)c2c[nH]c3ncc(-c4cnc(N5CCN(C(=O)CC6(O)CCN(c7ccc(NC8CCC(=O)NC8=O)cc7F)CC6)CC5)cn4)cc23)c1F` (stereo not drawn) [Example 187, 5-[5-[4-[2-[1-[4-[(2,6-dioxo-3-piperidyl)amino]-2-fluoro-phenyl]-4-hydroxy-4-piperidyl]acetyl]piperazin-1-yl]pyrazin-2-yl]-3-[3-[[ethyl(methyl)sulfamoyl]amino]-2,6-difluoro-benzoyl]-1H-pyrrolo[2,3-b]pyridine], it took 3.6 nM to reach half-maximal degradation (DC50) and the Emax is 7.8%.

Regarding `CCN(C)S(=O)(=O)Nc1ccc(F)c(C(=O)c2c[nH]c3ncc(-c4cnc(N5CCN(C(=O)CC6(O)CCN(c7ccc(NC8CCC(=O)NC8=O)cc7F)CC6)CC5)c(F)c4)cc23)c1F` (stereo not drawn) [Example 188, 5-[6-[4-[2-[1-[4-[(2,6-dioxo-3-piperidyl)amino]-2-fluoro-phenyl]-4-hydroxy-4-piperidyl]acetyl]piperazin-1-yl]-5-fluoro-3-pyridyl]-3-[3-[[ethyl(methyl)sulfamoyl]amino]-2,6-difluoro-benzoyl]-1H-pyrrolo[2,3-b]pyridine], the DC50 amounted to 4.5 nM and the Emax is 5.98%.

As to `CCN(C)S(=O)(=O)Nc1ccc(F)c(C(=O)c2c[nH]c3ncc(-c4ccc(N5CCN(C(=O)CC6(O)CCN(c7ccc(NC8CCC(=O)NC8=O)cc7F)CC6)CC5)cc4C)cc23)c1F` (stereo not drawn) [Example 189, 5-[4-[4-[2-[1-[4-[(2,6-dioxo-3-piperidyl)amino]-2-fluoro-phenyl]-4-hydroxy-4-piperidyl]acetyl]piperazin-1-yl]-2-methyl-phenyl]-3-[3-[[ethyl(methyl)sulfamoyl]amino]-2,6-difluoro-benzoyl]-1H-pyrrolo[2,3-b]pyridine], the DC50 came to 58.4 nM and the maximum response (Emax) turned out to be 14.9%.

A word on the DC50: it is the concentration giving 50% degradation. Low values mean a more potent degrader, high ones a less potent degrader. The term Emax denotes the size of the effect at its maximum, as opposed to the concentration needed.

These data come from patent US12559492B2, “BRAF degraders” (C4 Therapeutics, Inc., priority 2020, dated 2026).
